Source: patent US12104181B2, “Compositions and methods for treating viral infections targeting TRIM7” (THE BOARD OF REGENTS OF THE UNIVERSITY OF TEXAS SYSTEM, priority 2021, dated 2024)
Residues, ends and D or L forms follow the SMILES beside them. *: point of attachment. Cbz = O=C(OCc1ccccc1)*

What was measured:
CVB3-GFP = format: cell-based, coxsackievirus B3; conditions: for CVB3 infectivity in control HeLa-Fluc cells: 1 MOI, 8 hpi
CVB3 HA-2BC = test: Viral protein degradation in co-transfected 293T cells, Western blot; format: cell-based; conditions: MG132 10 μM at 24 hours post-transfection for 6 hours
Excerpt: Since TRIM7 binds 2C and 2BC, it was next tested whether TRIM7 targets either protein for degradation. […] 293T cells were co-transfected with plasmids expressing HA-tagged CVB3 viral proteins and 3×Flag-tagged TRIM7 (TRIM7-3F) or Fluc-expressing vector. […] Moreover, proteasome inhibition by MG132 restored HA-2BC protein in the presence of TRIM7 (FIG. 4F). Similar results were obtained with 2BC from other TRIM7-targeted enteroviruses, including EV71 and EVD68, whereas 2BC from TRIM7-insensitive MenV was unaffected (FIGS. 4G-4H). Accordingly, 2BC from EV71, but not MenV, interacted with TRIM7 in pulldown assays (FIG. 4I).
Protein lysate preparation and Western blot. Tissue culture cells were lysed in Nonidet P-40 (NP-40) buffer (50 mM Tris pH 7.4, 150 mM NaCl, 1% (v/v) NP-40, 1 mM EDTA, protease inhibitor cocktail) and incubated on ice for 30 min, followed by centrifugation at 13,000 rpm for 20 min at 4° C. For mouse tissue lysates, fresh tissues were collected in 2 ml round-bottom Eppendorf tubes containing NP40 lysis buffer and cut to small pieces using scissors. Then the tissues were homogenized with a Bullet Blender homogenizer (Next Advanced Inc., Averill Park, NY), and centrifuged at 13,000 rpm for 20 min at 4° C. Western blot analyses were performed as previously described (Mar et al., 2018).

[1] = tested on: vesicular stomatitis virus; format: cell-based
[2] = tested on: coxsackievirus B3 (CVB3-GFP); format: cell-based; conditions: HeLa cells, replicate R1; for Percent Infected R1: GFP-positive cells within RFP-positive gate

For c1ccc(CNc2nc(NCc3ccccc3)c3ccccc3n2)cc1 [DBeQ], the “rescue of CVB3-GFP infection in TRIM7-expressing cells” value (CVB3-GFP) was “failed to rescue” and the “CVB3 infectivity in control HeLa-Fluc cells” value (“CVB3 infectivity” for short) (CVB3-GFP) was “modestly reduced”.
CC(C)C[C@@H](C=O)NC(=O)[C@H](CC(C)C)NC(=O)[C@H](CC(C)C)NC(=O)OCc1ccccc1 [MG132] (Cbz-Leu-Leu-Leu-aldehyde) was tested, and the “rescue of CVB3-GFP infection in TRIM7-expressing cells” value (CVB3-GFP) was “striking rescue”, the “rescue of viral replication from transfected CVB3-GFP RNA” value (CVB3-GFP) was “rescued” and the “CVB3 infectivity” value (CVB3-GFP) was “modestly impaired”. The “rescue of infection in TRIM7-expressing cells, late addition” value (CVB3-GFP; added at later time points (post primary translation, >4 hours)) was “failed to rescue” and the “HA-2BC protein in the presence of TRIM7” value (CVB3 HA-2BC) was “restored”.
With CO/C1=C\C(C)=C\[C@@H](C)[C@@H](O)[C@@H](C)C/C(C)=C/C=C/[C@H](OC)[C@@H]([C@@H](C)[C@@H](O)[C@H](C)[C@@]2(O)C[C@@H](O)[C@H](C)[C@@H](C(C)C)O2)OC1=O [bafilomycin A1] the “CVB3 infectivity” value (CVB3-GFP) was “no impact” and the “replication of vesicular stomatitis virus” value [1] was “inhibited”.
CCN(CC)CCCC(C)Nc1ccnc2cc(Cl)ccc12 (centres unmarked) [chloroquine] was tested, and the “CVB3 infectivity” value (CVB3-GFP) was “no impact” and the “replication of vesicular stomatitis virus” value [1] was “inhibited”.
“MKRN2: human RING type E3 ligase expressed from lentiviral vector” was tested, and the “Percent Infected R1” value [2] was 93.3% and the “Z score R1” value [2] was 0.06.
With “RAD18: human RING type E3 ligase expressed from lentiviral vector” the “Percent Infected R1” value [2] was 91.2% and the “Z score R1” value [2] was 0.033.
For “RNF5: human RING type E3 ligase expressed from lentiviral vector”, the “Percent Infected R1” value [2] was 96.1% and the “Z score R1” value [2] was 0.1.
For “RNF20: human RING type E3 ligase expressed from lentiviral vector”, the “Percent Infected R1” value [2] was 91.8% and the “Z score R1” value [2] was 0.041.
For “RNF40: human RING type E3 ligase expressed from lentiviral vector”, the “Percent Infected R1” value [2] was 97.1% and the “Z score R1” value [2] was 0.11.
In the case of “RNF126: human RING type E3 ligase expressed from lentiviral vector”, the “Percent Infected R1” value [2] is reported as 94.5% and the “Z score R1” value [2] is reported as 0.08.
In the case of “TRIM5: human RING type E3 ligase expressed from lentiviral vector”, the “Percent Infected R1” value [2] is reported as 56.2% and the “Z score R1” value [2] is reported as −0.412.
“TRIM21: human RING type E3 ligase expressed from lentiviral vector” was tested, and the “Percent Infected R1” value [2] was 65.7% and the “Z score R1” value [2] was −0.291.
In the case of “TRIM25: human RING type E3 ligase expressed from lentiviral vector”, the “Percent Infected R1” value [2] is reported as 53.7% and the “Z score R1” value [2] is reported as −0.444.
